According to US20250101001A1 (priority 2021, published 2025):

Tests used:
[1] = type: in vivo; settings: mice
Method: Head twitch response (HTR) experiments. C57BL/6J Mice (9-10 weeks old) are housed following an IACUC approved protocol. The mice are habituated in the test cage for at least 30 min, injected intraperitoneally with compound (injection volume 5 ml/kg), returned to the empty test cage, and filmed for 20 minutes. Each video is scored for the number of head-twitches by a trained observer blinded to treatment condition.

5HT2A sensor [2] = type: cell-based
5HT2A sensor [3] = type: cell-based; remark: listed apart in the source

Row | Compound | head-twitch response (HTR) [1] | activation of the 5HT2A sensor assay in agonist mode (5HT2A sensor [2]) | competition with 5-HT in the 5HT2A sensor assay in antagonist mode (5HT2A sensor [3])
1 | 5-MeO-DMT [Compound 5-MeO-DMT] | produces a robust, dose-dependent head-twitch response | activate the 5HT2A sensor assay in agonist mode | 
2 | CN(C)CCc1c[nH]c2ccccc12 [DMT, N,N-dimethyltryptamine] |  | activate the 5HT2A sensor assay in agonist mode | 
3 | 6-MeO-DMT [Compound 6-MeO-DMT] | does not produce a HTR | do not activate the 5HT2A sensor assay in agonist mode | compete off 5-HT
4 | 6-F-DET [Compound 6-F-DET] |  | do not activate the 5HT2A sensor assay in agonist mode | can compete with 5HT binding to 5HT2A
5 | BOL148 |  | do not activate the 5HT2A sensor assay in agonist mode | can compete with 5HT binding to 5HT2A
6 | O=C(c1ccc(F)cc1)C1CCN(CCn2c(=O)[nH]c3ccccc3c2=O)CC1 [Ketanserin] |  | do not activate the 5HT2A sensor assay in agonist mode | can compete with 5HT binding to 5HT2A
7 | R-MDMA |  | do not activate the 5HT2A sensor assay in agonist mode | 
